The text below walks through data of article PMC7956560, “New 3-Aryl-2-(2-thienyl)acrylonitriles with High Activity Against Hepatoma Cells” (International Journal of Molecular Sciences, 2021).

One series has as its system human Huh-7 HCC cells. Kind of series: Growth inhibition, crystal violet staining, Huh-7. It is filed as cell-based. The following applies: 48 h incubation, mean ± SD, read-out: Anti-proliferative activity IC50, Huh-7. How it is done: (§1) The well-differentiated p53 wild-type human hepatoblastoma cell line HepG2 (ATCC# 8065) and the highly differentiated p53 mutated human hepatocellular carcinoma cell line Huh-7 (JCRB#0403) were grown in RPMI 1640 medium supplemented with 10% fetal bovine serum and 100 U/mL penicillin and […] streptomycin. Murine AML-12 hepatocytes were obtained from ATCC (CRL-2254) and grown in DMEM/F-12 Glutamax medium supplemented with 10% fetal bovine serum, 10 µg/mL insulin, 5.5 µg/mL transferrin, 5 ng/mL selenium (Gibco ITS-G 100X) and 40 ng/mL dexamethasone (Sigma-Aldrich). All cell lines were incubated in a 37 °C, 5% CO2, 95% humidified atmosphere.
(§2) Treatment-induced changes in cell number were evaluated by crystal violet staining, as previously described. Briefly, 1.500 cells per well were seeded in 96-well plates for 24 h at 37 °C, 5% CO2. For the experiments with HepG2 and Huh-7 cell lines, cells were incubated with rising concentrations (0–20 µM) of the new compounds (1a–1o) for 48 h. AML12-cells were treated with compounds 1a, 1b, 1c, 1e, 1i and 1j for 48 h and at concentrations ranging from 0.5–64 µM. Thereafter, the cells were fixed with 1% glutaraldehyde and stained with 0.1% crystal violet (Sigma-Aldrich). The unbound dye was removed by rinsing with water. Bound crystal violet was solubilized with 0.2% Triton X-100 (Sigma-Aldrich). Light extinction of crystal violet, which increases linearly with cell number, was analyzed at 570 nm using an ELISA-Reader (Dynex Technologies, Denkendorf, Germany). All experiments were carried out in duplicate or triplicate.

A further series deals with T1, Pim-1 (Homo sapiens, UniProt P11309).
T1 construct: purchased Eurofins KinaseProfiler service (Eurofins, France)
Kind of series: Enzymatic kinase assay (Eurofins KinaseProfiler). It is filed as biochemical. As to conditions: 10 µM compound, cell-free. How it is done: (§3) The kinase inhibiting potency of compound 1a, 1b and 1c (10 µM) was screened in a cell-free kinase assay, which consisted of a custom panel of 43 human protein kinases for 1c (listed in Figure 5A), as well as a subpanel of six kinases for 1a and 1b (Figure 5B). The initial panel was chosen to screen the lead compound 1c based on the union of two strategies. A total of 29 kinases were selected based on the correlated results of three in silico target prediction methods including structure- as well as ligand-based techniques and 20 kinases because of their relevance for HCC (note that six kinases were part of both strategies).
(§4) The assay was performed by Eurofins KinaseProfilerTM service (Eurofins, France) and the determination of enzymatic activity was assessed as previously described. Additionally, an IC50 determination of compound 1c against the VEGFR-2 was performed with a concentration range of 0.003 to 30 µM.

A further series concerns the target T2, EGFR (Homo sapiens, UniProt P00533).
T2 construct: purchased Eurofins KinaseProfiler service (Eurofins, France)
In words: Enzymatic kinase assay (Eurofins KinaseProfiler). It counts as biochemical. The following applies: 10 µM compound, cell-free. How it is done:
as §3, §4

The target of the next series is T3, Pim-2 (Homo sapiens, UniProt Q9P1W9).
T3 construct: purchased Eurofins KinaseProfiler service (Eurofins, France)
Kind of series: Enzymatic kinase assay (Eurofins KinaseProfiler). It counts as biochemical. The following applies: 10 µM compound, cell-free. How it is done:
as §3, §4

For another series, the target named is T4, CLK1 (Homo sapiens, UniProt P49759).
T4 construct: purchased Eurofins KinaseProfiler service (Eurofins, France)
Kind of series: Enzymatic kinase assay (Eurofins KinaseProfiler). It counts as biochemical. As to conditions: 10 µM compound, cell-free. How it is done:
as §3, §4

Another series addresses T5, VEGFR-2 (KDR) (Homo sapiens, UniProt P35968).
T5 construct: purchased Eurofins KinaseProfiler service (Eurofins, France)
In words: Enzymatic kinase assay (Eurofins KinaseProfiler). It is filed as biochemical. How it is done:
as §3, §4

The target in another series is T6, VEGFR-1 (Homo sapiens, UniProt P17948).
T6 construct: purchased Eurofins KinaseProfiler service (Eurofins, France)
Kind of series: Enzymatic kinase assay (Eurofins KinaseProfiler). The following applies: 10 µM compound, cell-free. It is filed as biochemical. How it is done: as §3, §4

The target in another series is T7, IGF-1R (Homo sapiens, UniProt P08069).
T7 construct: purchased Eurofins KinaseProfiler service (Eurofins, France)
Kind of series: Enzymatic kinase assay (Eurofins KinaseProfiler). The following applies: 10 µM compound, cell-free. It counts as biochemical. How it is done:
as §3, §4

A further series has as its target T8, c-KIT (Homo sapiens, UniProt P10721).
T8 construct: purchased Eurofins KinaseProfiler service (Eurofins, France)
In words: Enzymatic kinase assay (Eurofins KinaseProfiler). It counts as biochemical. As to conditions: 10 µM compound, cell-free. The protocol: as §3, §4

In a further series the test system is PDGFR. In words: Enzymatic kinase assay (Eurofins KinaseProfiler). It is filed as biochemical, human. The following applies: 10 µM compound, cell-free. The protocol:
as §3, §4

The next series has as its system FGFR. Kind of series: Enzymatic kinase assay (Eurofins KinaseProfiler). It is filed as biochemical, human. As to conditions: 10 µM compound, cell-free. The protocol:
as §3, §4

Series [1] concerns HepG2-tumors grown on membranes of fertilized chicken eggs. Kind of series: Chorioallantoic membrane (CAM) assay. It counts as in vivo. The protocol: The chorioallantoic membrane (CAM) assay was performed as described previously. Fertilized chicken eggs (Gallus gallus) were obtained from commercial sources (Valo GmbH, Germany) and incubated in a humid environment at 38 °C. On day 3 of the egg development, a window was cut in the eggshell to access the developing vascular network of the CAM. At day 10 of chicken embryo development, a sterile silicon ring (10 mm diameter) was placed on the CAM and tumor plugs of 3 × 10^6 HepG2 cells in 20 µL Matrigel (BD Biosciences) with reduced growth factors were placed inside the silicon ring. After 24 h at 38 °C in an incubator, the tumor plaques attached and connected to the (tumor-)feeding CAM microvasculature. Then, the tumor plaques were topically treated with either PBS (negative control) or PBS containing rising concentrations of 1b (0–10 µM), 1c (0–2.5 µM) or sorafenib (10 μM) for 3 days. Tumor growth and viability of the embryo were controlled daily by stereo microscopy. After 72 h of treatment, the tumors were recovered for weighing and pictures were taken using a stereomicroscope equipped with a Kappa digital camera system (Kappa Optronics GmbH, Germany). For data analysis, the tumor weight of 1c-treated and untreated control tumors was determined and the mean weight of treated vs. untreated tumors of 11 eggs for each condition was calculated. Statistical significance evaluated by one-way ANOVA tests.

Series [2] relates to caspase-3 activity of HepG2 cells. Kind of series: Apoptosis-specific caspase-3 activity. As to conditions: HepG2, 1 and 10 µM, 24 h. It counts as cell-based, human. How it is done:
Changes in caspase-3 activity were measured by the cleavage of the fluorogenic substrate AC-DEVD-AMC (EMD Millipore, Billerica, MA, USA), as described previously. After 24 h of incubation with 1a, 1b, 1c, 1e and sorafenib (1 and 10 µM) the cells were harvested and lysed with lysis buffer. Subsequently, the lysates were incubated for 1 h at 37 °C with a substrate solution containing 20 μg/mL AC-DEVD-AMC, 20 mM HEPES, 10% glycerol and 2 mM DTT at pH 7.5. Substrate cleavage was measured fluorometrically using a Varioskan Flash Fluorometer (Thermo Fisher Scientific, Waltham, MA, USA; filter sets: ex 360/40 nm, em 460/10 nm). n = 3 independent measurements were performed in triplicate, and data are given as the mean percentage increase ± SD above control, which was set 100%.

In series [3] the test system is non-malignant murine AML-12 hepatocytes. In words: Growth inhibition, crystal violet staining, AML-12. It counts as cell-based. The protocol: as §1, §2

T5 sequence (P35968 20-1356): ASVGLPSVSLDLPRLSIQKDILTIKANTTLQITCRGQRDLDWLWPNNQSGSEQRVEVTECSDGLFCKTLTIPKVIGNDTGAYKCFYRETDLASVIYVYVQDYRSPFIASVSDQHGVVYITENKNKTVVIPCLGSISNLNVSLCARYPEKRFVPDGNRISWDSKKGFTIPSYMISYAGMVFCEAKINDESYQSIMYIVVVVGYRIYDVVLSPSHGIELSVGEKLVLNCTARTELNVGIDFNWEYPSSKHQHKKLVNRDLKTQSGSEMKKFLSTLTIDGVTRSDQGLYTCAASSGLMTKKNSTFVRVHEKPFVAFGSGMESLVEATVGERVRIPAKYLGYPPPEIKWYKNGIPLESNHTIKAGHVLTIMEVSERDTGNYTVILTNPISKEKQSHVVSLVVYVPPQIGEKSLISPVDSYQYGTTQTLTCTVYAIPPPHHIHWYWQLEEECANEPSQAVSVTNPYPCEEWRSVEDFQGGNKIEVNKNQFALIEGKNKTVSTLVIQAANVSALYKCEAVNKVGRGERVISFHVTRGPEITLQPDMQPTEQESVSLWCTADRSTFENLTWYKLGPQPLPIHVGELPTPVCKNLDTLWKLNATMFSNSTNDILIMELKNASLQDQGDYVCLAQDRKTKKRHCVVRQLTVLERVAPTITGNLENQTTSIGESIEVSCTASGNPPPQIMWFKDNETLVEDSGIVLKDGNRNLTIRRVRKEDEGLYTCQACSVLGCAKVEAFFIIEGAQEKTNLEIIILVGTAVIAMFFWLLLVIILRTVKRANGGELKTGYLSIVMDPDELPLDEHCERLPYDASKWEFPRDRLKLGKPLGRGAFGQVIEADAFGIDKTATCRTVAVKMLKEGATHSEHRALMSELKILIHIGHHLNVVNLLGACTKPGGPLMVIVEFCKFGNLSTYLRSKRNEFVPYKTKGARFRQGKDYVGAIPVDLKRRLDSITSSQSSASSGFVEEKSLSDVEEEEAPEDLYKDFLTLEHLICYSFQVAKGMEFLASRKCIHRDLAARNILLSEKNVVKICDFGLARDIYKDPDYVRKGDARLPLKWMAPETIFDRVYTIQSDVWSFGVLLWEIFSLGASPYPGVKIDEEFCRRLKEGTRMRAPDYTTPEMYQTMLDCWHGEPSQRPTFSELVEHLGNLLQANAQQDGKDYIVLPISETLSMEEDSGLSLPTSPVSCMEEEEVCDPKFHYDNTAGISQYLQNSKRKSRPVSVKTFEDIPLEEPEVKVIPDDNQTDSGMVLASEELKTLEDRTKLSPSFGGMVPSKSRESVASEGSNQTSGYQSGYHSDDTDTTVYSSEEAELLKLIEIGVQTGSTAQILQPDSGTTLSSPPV
T6 sequence (P17948 27-1338): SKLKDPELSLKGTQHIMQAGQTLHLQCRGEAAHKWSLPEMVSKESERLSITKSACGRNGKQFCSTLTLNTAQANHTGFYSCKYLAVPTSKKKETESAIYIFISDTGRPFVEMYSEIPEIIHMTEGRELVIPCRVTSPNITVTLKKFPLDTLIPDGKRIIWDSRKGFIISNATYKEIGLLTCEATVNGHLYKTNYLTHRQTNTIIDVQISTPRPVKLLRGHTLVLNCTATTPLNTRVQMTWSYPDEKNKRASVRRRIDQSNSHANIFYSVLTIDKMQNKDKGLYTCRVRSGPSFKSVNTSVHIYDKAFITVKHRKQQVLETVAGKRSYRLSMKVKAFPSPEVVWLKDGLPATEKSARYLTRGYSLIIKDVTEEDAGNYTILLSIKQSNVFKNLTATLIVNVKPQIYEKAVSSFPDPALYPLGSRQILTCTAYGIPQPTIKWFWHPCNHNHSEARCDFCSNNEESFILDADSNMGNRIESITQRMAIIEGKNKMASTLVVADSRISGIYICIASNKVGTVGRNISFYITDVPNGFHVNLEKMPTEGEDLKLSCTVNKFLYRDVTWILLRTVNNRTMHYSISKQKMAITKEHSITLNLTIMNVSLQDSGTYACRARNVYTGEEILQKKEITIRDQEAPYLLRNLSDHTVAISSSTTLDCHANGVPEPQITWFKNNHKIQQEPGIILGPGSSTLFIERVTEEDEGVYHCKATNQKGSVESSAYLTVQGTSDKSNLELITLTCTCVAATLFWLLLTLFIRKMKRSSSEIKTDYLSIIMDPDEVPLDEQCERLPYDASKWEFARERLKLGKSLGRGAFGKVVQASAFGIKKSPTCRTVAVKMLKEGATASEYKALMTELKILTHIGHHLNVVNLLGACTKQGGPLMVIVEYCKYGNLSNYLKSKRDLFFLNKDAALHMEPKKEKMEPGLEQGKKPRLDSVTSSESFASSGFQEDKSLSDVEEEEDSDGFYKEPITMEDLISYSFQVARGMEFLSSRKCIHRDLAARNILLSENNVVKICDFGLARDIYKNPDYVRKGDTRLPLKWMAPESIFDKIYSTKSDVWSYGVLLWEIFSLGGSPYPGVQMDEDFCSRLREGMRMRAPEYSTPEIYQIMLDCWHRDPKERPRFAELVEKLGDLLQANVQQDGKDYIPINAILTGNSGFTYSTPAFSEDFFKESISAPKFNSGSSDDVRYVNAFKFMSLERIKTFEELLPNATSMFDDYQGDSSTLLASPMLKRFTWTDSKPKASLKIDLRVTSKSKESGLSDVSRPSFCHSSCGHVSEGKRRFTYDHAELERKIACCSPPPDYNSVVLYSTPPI
T7 sequence (P08069 31-1367): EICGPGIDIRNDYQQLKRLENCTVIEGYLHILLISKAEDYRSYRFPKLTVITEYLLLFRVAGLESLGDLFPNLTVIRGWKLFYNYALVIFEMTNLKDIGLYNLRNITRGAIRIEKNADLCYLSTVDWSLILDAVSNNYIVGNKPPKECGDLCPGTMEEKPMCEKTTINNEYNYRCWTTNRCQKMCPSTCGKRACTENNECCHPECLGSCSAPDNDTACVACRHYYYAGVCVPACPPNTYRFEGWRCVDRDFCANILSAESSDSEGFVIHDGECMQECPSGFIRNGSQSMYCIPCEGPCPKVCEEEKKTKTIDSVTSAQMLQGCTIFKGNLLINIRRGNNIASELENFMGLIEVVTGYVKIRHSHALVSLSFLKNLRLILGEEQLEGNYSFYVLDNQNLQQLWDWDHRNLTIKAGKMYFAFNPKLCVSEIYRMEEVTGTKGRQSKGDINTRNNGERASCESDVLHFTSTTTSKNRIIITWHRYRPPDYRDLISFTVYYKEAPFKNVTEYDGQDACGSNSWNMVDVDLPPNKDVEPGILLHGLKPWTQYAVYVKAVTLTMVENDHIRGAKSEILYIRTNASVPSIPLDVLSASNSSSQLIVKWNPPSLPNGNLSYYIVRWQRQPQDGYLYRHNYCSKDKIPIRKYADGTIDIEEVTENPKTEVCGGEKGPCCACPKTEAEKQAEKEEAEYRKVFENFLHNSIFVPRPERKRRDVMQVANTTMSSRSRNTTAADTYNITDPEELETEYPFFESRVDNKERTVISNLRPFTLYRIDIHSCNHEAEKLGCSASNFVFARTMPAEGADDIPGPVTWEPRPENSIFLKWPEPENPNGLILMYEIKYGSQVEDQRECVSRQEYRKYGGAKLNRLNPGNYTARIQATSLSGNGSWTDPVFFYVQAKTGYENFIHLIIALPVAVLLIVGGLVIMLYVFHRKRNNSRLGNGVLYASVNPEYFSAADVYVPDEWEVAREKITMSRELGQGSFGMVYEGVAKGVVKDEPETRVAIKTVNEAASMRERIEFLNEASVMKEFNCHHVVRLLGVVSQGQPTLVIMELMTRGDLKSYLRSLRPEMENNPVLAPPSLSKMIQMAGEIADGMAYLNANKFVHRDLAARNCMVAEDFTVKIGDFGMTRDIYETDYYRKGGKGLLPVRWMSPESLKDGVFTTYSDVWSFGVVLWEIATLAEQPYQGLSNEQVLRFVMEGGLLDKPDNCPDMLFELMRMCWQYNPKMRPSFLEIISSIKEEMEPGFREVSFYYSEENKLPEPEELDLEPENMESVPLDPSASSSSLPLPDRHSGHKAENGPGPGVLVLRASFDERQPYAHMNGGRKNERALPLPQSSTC
T1 sequence (P11309 whole entry): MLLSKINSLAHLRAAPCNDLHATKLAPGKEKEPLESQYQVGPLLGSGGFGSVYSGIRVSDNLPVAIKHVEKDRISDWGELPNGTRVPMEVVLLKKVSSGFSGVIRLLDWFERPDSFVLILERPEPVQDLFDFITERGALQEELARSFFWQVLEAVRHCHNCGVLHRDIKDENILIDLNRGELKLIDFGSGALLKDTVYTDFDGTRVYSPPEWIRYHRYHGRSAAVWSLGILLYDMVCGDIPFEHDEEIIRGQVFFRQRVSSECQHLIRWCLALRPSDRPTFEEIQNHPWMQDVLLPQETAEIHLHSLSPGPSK
T4 sequence (P49759 whole entry): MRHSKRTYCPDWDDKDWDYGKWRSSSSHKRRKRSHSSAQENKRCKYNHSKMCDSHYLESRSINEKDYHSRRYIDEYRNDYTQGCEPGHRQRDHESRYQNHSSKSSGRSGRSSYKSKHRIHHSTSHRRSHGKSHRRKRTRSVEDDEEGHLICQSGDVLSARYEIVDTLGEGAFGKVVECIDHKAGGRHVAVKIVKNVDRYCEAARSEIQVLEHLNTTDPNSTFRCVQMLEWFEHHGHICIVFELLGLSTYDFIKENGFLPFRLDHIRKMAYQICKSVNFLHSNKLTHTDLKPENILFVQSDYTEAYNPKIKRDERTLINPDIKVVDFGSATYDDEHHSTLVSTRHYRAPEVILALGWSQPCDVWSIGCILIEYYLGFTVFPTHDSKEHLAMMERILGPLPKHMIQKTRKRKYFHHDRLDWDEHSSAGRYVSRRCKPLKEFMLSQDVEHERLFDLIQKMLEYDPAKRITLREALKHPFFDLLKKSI
T3 sequence (Q9P1W9 whole entry): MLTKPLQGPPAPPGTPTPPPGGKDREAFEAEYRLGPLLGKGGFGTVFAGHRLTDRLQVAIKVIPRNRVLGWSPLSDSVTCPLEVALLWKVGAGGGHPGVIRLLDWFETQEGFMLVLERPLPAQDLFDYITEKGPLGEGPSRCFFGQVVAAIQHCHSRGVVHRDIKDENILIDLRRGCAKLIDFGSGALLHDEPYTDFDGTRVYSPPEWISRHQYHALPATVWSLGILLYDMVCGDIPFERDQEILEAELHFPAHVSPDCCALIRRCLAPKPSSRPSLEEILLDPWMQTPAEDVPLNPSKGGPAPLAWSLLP

By IC50 is commonly meant the midpoint of a concentration-inhibition curve. One may read the inhibition as the relative decrease from the control value, in per cent. Higher therefore signals a strong effect. Turning to `COc1ccc(C=C(C#N)c2cccs2)cc1O` [Compound 1c, 2-[1-Cyano-2-(3-hydroxy-4-methoxyphenyl)-(E)-ethenyl)]-thiophene], the IC50 with human Huh-7 HCC cells was 320 ± 150 nM; on VEGFR-2 (KDR) (concentration range 0.003 to 30 µM, read-out: IC50 against VEGFR-2) it was 3320 nM; in [3] (Mus musculus, AML12, 48 h incubation, mean ± SD, read-out: Anti-proliferative activity IC50, AML-12), 1810 ± 310 nM. In addition, the inhibition at 10 µM on Pim-1 was determined as 71%; on Pim-2, 60%; at CLK1, 69%; against VEGFR-2 (KDR) (10 µM compound, cell-free) it was 89%; at VEGFR-1, 75%; on c-KIT, 61%. Besides, the “inhibition of EGFR (in words)” value against EGFR is “no relevant inhibition”. In addition, on IGF-1R, the “inhibition of IGF-1R (in words)” value is listed as “no relevant inhibition”. Also, the “inhibition of PDGFR (in words)” value in the series with PDGFR was “no relevant inhibition”. In addition, the “inhibition of FGFR (in words)” value with FGFR is “no relevant inhibition”. For the same compound, in [1] (extracted tumors after 3 days of treatment, 1c 0–2.5 µM), the “tumor weight after treatment (in words)” value is listed as “significant mass reduction”. Also, the “tumor reduction vs PBS-treated controls (in words)” value in series [1] (topical treatment 72 h, 1b 0–10 µM, 1c 0–2.5 µM, sorafenib 10 µM) is “pronounced tumor reductions”. For the same compound, in [1] (treated vs untreated eggs), the “tolerability, mortality and development of chicken embryos” value is given as “well tolerated”. For the same compound, the “caspase-3 activity (in words)” value in [2] is “dose-dependently induced caspase-3 activity”. In addition, the “IC50 against AML-12 hepatocytes relative to hepatoma cells” value in series [3] (AML-12 vs hepatoma cells (HepG2, Huh-7), 48 h) is reported as “up to 10 fold”.
